The compounds below were run against rBIIa/beta 1 sodium channels expressed in Xenopus oocytes (Rattus norvegicus, UniProt P04775) (assay: Electrophysiological assay (two-electrode voltage clamp), sodium channel inhibition, inactivated state). Conditions: apparent Ki from single point inhibition data; rat brain type IIa/beta 1 channels in Xenopus oocytes; test pulse after 4 second depolarization from -120 mV holding potential; read-out: Ki (inhibition constant for sodium channel inhibition).
rBIIa/beta 1 sodium channels expressed in Xenopus oocytes, sequence (P04775 whole entry): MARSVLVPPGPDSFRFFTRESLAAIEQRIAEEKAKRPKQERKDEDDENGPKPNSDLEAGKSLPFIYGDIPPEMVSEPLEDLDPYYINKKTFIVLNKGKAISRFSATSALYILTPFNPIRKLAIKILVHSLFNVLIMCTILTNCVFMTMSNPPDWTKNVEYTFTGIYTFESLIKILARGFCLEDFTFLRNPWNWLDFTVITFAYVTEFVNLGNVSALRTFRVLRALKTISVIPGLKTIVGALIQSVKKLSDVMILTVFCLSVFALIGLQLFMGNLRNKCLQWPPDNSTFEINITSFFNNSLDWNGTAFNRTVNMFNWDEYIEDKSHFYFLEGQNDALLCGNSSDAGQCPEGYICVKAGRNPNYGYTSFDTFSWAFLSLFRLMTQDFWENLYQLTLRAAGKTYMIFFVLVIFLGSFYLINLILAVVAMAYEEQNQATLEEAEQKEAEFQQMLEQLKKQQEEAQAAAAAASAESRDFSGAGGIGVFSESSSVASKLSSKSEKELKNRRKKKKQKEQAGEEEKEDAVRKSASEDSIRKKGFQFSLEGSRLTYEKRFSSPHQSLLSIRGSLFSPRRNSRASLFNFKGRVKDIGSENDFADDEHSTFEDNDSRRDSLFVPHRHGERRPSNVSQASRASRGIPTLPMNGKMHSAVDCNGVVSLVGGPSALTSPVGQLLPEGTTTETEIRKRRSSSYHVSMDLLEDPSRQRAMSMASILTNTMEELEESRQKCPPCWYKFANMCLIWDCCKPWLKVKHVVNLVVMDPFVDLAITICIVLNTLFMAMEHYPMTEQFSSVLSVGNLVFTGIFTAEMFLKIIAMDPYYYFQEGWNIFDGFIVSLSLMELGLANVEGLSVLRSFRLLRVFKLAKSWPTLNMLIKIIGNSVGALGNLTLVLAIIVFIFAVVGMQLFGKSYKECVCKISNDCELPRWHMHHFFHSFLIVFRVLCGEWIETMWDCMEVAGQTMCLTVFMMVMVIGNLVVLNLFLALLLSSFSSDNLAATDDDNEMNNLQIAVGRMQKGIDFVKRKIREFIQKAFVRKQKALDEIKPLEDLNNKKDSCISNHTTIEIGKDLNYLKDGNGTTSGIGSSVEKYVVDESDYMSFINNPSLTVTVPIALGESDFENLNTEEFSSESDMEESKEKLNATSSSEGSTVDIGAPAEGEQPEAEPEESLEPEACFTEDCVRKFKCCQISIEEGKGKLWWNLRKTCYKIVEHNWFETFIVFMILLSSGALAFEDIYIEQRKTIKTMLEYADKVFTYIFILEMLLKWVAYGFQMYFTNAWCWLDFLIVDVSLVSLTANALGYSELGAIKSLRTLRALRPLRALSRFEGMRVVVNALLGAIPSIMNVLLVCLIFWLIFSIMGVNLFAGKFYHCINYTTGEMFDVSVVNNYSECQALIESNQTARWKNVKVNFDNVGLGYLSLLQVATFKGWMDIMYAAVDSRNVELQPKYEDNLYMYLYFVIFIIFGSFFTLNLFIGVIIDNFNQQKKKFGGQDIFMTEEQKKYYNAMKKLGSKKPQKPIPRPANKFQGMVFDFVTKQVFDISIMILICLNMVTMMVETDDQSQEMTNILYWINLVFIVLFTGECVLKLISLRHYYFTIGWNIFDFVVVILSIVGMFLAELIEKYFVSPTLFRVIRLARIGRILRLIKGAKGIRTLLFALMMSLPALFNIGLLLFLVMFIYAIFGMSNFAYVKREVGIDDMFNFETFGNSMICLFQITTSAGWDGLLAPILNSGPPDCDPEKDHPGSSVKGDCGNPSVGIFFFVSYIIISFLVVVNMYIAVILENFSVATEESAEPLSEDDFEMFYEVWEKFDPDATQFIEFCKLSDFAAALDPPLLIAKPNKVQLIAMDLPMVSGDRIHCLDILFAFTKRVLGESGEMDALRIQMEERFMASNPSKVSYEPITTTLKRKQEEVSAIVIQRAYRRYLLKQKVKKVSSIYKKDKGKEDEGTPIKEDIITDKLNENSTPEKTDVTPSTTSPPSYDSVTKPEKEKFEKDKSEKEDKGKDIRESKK
rBIIa/beta 1 sodium channels expressed in Xenopus oocytes, sequence (Q00954 19-218 partner): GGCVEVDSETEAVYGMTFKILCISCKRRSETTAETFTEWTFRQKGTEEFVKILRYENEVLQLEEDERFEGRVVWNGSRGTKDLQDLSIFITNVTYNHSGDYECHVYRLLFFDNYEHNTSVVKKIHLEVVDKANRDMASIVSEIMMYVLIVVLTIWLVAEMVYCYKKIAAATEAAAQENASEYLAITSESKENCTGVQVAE
Type: cell-based
Experimental: An electrophysiological assay was used to measure potencies of compounds of the present invention rBIIa/beta 1 sodium channels expressed in Xenopus oocytes.
Preparation of cRNA encoding cloned rat brain type IIa (rBIIa) and beta 1 (β1): cDNA clones encoding the rat brain beta 1 subunit are cloned in house using standard methods, and mRNA are prepared by standard methods. mRNA encoding rBIIa is provided by Dr. A. Golden (UC Irvine). The mRNAs are diluted and stored at −80° C. in 1 μL aliquots until injection.
Preparation of oocytes: Mature female Xenopus laevis are anaesthetized (20–40 min) using 0.15% 3-aminobenzoic acid ethyl ester (MS-222) following established procedures (Woodward, R. M., et al., Mol. Pharmacol. 41:89–103 (1992)).
Two to six ovarian lobes are surgically removed. Oocytes at developmental stages V–VI are dissected from the ovary, wherein the oocytes are still surrounded by enveloping ovarian tissues. Oocytes are defolliculated on the day of surgery by treatment with collagenase (0.5 mg/mL Sigma Type I, or Boehringer Mannheim Type A, for 0.5–1 hr). Treated oocytes are vortexed to dislodge epithelia, washed repeatedly and stored in Barth's medium containing 88 mM NaCl, 1 mM KCl, 0.41 mM CaCl2, 0.33 mM Ca(NO3)2, 0.82 mM MgSO4, 2.4 mM NaHCO3, 5 mM HEPES, pH 7.4 adjusted with 0.1 mg/mL gentamycin sulphate.
Micro-injection of oocytes: Defolliculated oocytes are micro-injected using a Nanoject injection system (Drummond Scientific Co., Broomall, Pa.). Injection pipettes are beveled to minimize clogging. Tip diameter of injection pipettes is 15–35 μm. Oocytes are microinjected with approximately 50 nL 1:10 ratio mixtures of cRNAs for rBIIa and beta 1 respectively.
Electrophysiology: Membrane current responses are recorded in frog Ringer solution containing 115 mM NaCl, 2 mM KCl, 1.8 mM CaCl2, 5 mM HEPES, pH 7.4. Electrical recordings are made using a conventional two-electrode voltage clamp (Dagan TEV-200) over periods ranging between 1–7 days following injection. The recording chamber is a simple gravity fed flow-through chamber (volume […] depending on adjustment of aspirator). Oocytes are placed in the recording chamber, impaled with electrodes and continuously perfused (5–15 mL min^−1) with frog Ringer's solution. […]
Voltage protocols for evoking sodium channel currents: The standard holding potential for whole oocyte clamp is −120 mV. […] Peak currents are measured as the maximum negative current after depolarizing voltage steps. […]
The purpose is to find compounds that are state dependent modifiers of neuronal sodium channels. […] Sodium currents are measured at this test pulse before and after the application of the tested compound. Data is acquired using PCLAMP 8.0 software and analyzed with CLAMPFIT software (Axon instruments). […]
Nc1cc(=O)[nH]c(-c2ccc(Oc3ccc(F)cc3)cc2)n1 [2-(4-(4-fluorophenoxy)phenyl)-6-amino-pyrimidin-4-one] showed a Ki of 0.47 µM. Nc1nc(-c2ccccc2)[nH]c(=O)c1Cc1ccccc1Cl [2-phenyl-6-amino-5-(2-chlorobenzyl)pyrimidin-4-one] was tested, and the Ki was 49.2 µM. Work on “2-(4-(4-fluorophenoxy)phenyl)-4-tert-butyl-6-aminopyrimidin-4-one” yielded a Ki of 15.6 µM. Nc1nc(-c2ccc(Oc3ccc(F)cc3)cc2)[nH]c(=O)c1Cc1ccccc1Cl [2-(4-(4-fluorophenoxy)phenyl)-6-amino-5-(2-chlorobenzyl)pyrimidin-4-one] showed a Ki of 30.9 µM.

— US7229993B2, “Aryl substituted pyrimidines and the use thereof” (Euro-Celtique S.A., priority 2002, dated 2007)
